Measured values from article PMC6941357, “An in vitro toolbox to accelerate anti-malarial drug discovery and development” (Malaria Journal, 2020).
≈ marks a conversion by molar mass, not a printed value.

Tests used:
[1] = Solubility limited absorbable dose (SLAD) calculation with predicted human jejunal Peff; details: for solubility: FaSSIF; for An (absorption number): Peff × tres/R, minimum 1; for SLAD: Ssi × V (500 mL) × Mp; for Permeability classification: based on ref 80 and control compounds; for Predicted human Peff: from Caco-2 Papp via calibration plot
Excerpt: Predicted Peff values were obtained from a calibration plot of literature Peff values vs measured Caco-2 Papp using either buffer or plasma as the transport medium (see Results section).

[2] = Binding to human liver microsomes via ultracentrifugation; assay type: in vitro ADME; details: human, pH 7.4, 0.4 mg/mL protein, read-out: Fraction unbound, HLM
Outline: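 Unbound fraction by ultracentrifugation: Cunbound measured in protein-free supernate, Ctotal from spiked tubes held at 37 °C, sampled at start and end to check degradation. Matrix was 0.4 mg/mL human liver microsomal protein, 0.1 M phosphate pH 7.4; matrix-matched analysis against one calibration curve.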

[3] = Octanol/pH 7.4 buffer partition coefficient, shake flask; details: pH 7.4
Outline: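 Octanol stocks (3-30 mg/mL) were diluted 3- and 10-fold and shaken with equal volumes of pH 7.4 phosphate buffer (67 mM, in 43 mM NaCl) at 37 °C. Both phases were quantified by LC-MS against calibration standards. The coefficient is the mean octanol/buffer concentration ratio, with two time points confirming equilibrium.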

[4] = Plasma protein binding via ultracentrifugation (UC); assay type: in vitro ADME, human; details: pH 7.4
Outline: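 Pooled human plasma (3–4 donors) spiked and ultracentrifuged; protein-free supernate gave Cunbound, parallel tubes kept at 37 °C gave Ctotal and stability (start vs end). Samples matrix-matched 1:1 with opposite blank and quantified against a common calibration curve; fu SD by error propagation.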

CYP2C19 = CYP2C19 (Homo sapiens, UniProt P33261); assay: Cytochrome P450 inhibition in human liver microsomes; details: for inhibition at 20 µM: human, pH 7.4; for inhibition at 20 µM / CYP2C19 % inhibition at max conc: microsomes
Outline: (§1)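 Metabolites quantified by LC–MS against calibration standards in quenched microsomal matrix, with diazepam as internal standard; substrate Km determined under the same incubation conditions.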

CYP2C9 = CYP2C9 (Homo sapiens, UniProt P11712); assay: as above
Outline: as §1

CYP1A2 = target: T1, CYP1A2 (Homo sapiens, UniProt P05177); assay: as above; details: for inhibition at 20 µM: human, pH 7.4
T1 sequence (P05177 1-516): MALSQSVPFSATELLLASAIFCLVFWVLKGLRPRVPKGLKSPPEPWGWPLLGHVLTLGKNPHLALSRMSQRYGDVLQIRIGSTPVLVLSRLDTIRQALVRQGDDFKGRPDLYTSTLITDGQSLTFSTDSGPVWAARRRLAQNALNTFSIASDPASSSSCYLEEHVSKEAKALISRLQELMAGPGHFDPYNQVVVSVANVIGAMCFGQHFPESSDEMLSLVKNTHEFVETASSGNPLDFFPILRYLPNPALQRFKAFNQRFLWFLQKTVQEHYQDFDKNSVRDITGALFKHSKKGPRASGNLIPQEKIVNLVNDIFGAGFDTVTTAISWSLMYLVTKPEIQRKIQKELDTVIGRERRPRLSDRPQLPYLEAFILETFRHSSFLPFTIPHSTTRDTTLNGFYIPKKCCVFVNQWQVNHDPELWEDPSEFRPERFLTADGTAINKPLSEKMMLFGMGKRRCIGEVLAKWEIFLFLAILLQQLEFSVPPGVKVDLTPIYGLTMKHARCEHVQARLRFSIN
Outline: as §1

CYP3A4 = CYP3A4 (Homo sapiens, UniProt P08684); assay: as above; details: for IC50: highest concentration tested 20 µM; for inhibition at 20 µM: human; for inhibition at 20 µM / CYP3A4 (midaz) % inhibition at max conc / CYP3A4 (test) % inhibition at max conc: microsomes
Outline: as §1

CYP2D6 = CYP2D6 (Homo sapiens, UniProt P10635); assay: as above; details: for inhibition at 20 µM: human, microsomes, pH 7.4
Outline: as §1

[5] = human, neat pooled plasma, ultracentrifugation, neat plasma, read-out: Fraction unbound, human plasma
[6] = CYP3A4 (midaz) IC50, human liver microsomes, CYP3A4 (midaz)
[7] = CYP3A4 (test) IC50, human liver microsomes, CYP3A4 (test)
[8] = pH 7.4, CYP3A4 (test) % inhibition at max conc
[9] = pH 7.4, CYP3A4 (midaz) % inhibition at max conc
[10] = octanol/pH 7.4 phosphate buffered saline
[11] = human plasma, fraction unbound, read-out: Plasma fu

CYP2C19, sequence (P33261 whole entry): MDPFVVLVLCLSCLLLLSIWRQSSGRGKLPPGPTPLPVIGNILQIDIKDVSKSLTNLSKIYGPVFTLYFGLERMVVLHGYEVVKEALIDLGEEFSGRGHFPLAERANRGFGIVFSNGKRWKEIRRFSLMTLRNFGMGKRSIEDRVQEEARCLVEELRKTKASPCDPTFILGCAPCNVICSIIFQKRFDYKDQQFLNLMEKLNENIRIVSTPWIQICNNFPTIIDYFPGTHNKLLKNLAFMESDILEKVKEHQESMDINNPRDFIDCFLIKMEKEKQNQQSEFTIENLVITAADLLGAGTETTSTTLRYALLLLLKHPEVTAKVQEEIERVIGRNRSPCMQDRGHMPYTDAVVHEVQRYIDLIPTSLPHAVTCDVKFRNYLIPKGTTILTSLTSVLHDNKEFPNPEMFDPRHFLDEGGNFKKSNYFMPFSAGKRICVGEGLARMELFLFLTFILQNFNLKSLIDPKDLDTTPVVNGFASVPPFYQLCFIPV
CYP2C9, sequence (P11712 whole entry): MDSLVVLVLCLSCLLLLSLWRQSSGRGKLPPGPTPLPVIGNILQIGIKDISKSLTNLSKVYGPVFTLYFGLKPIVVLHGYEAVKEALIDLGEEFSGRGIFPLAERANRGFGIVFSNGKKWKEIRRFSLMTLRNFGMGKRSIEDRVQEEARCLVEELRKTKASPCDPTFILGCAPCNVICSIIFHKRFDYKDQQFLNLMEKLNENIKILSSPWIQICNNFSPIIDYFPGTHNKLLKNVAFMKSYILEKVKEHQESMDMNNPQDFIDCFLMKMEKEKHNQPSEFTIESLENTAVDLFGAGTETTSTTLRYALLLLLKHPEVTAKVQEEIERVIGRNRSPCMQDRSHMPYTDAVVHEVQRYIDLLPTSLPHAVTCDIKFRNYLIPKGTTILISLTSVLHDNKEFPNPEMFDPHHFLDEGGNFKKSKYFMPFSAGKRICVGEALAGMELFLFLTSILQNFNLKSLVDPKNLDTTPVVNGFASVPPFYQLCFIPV
CYP2D6, sequence (P10635 whole entry): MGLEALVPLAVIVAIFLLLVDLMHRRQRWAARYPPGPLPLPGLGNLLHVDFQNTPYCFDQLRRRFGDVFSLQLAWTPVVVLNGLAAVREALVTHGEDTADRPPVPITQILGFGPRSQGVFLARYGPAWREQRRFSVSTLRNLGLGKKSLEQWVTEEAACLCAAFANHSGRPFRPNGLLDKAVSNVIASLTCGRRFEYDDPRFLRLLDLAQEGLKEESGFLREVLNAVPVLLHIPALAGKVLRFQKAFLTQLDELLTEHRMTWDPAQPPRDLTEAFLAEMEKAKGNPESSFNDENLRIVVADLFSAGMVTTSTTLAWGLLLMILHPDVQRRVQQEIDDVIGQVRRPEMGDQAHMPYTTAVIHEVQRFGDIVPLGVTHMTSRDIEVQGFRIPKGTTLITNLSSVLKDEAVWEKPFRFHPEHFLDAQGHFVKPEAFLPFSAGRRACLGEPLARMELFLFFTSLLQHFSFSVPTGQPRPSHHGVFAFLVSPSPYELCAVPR
CYP3A4, sequence (P08684 whole entry): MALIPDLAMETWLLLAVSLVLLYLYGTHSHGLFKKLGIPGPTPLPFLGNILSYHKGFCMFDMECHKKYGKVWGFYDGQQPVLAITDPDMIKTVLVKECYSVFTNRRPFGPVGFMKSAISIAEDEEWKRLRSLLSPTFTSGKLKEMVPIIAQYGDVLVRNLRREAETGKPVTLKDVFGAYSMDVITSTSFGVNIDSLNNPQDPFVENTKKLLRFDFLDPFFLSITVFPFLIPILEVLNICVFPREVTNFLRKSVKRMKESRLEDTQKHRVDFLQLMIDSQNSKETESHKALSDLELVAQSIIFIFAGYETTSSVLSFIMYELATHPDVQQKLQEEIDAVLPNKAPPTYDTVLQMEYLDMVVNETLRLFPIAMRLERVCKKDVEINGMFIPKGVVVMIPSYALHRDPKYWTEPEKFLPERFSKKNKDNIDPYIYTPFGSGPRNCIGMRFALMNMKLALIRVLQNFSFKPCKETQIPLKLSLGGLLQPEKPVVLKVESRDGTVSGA

SMILES	solubility [1]	An (absorption number) [1]	SLAD [1]	Permeability classification [1]	Predicted human Peff [1]	fraction unbound at […] ([2]; liver microsomes)	logD ([3]; octanol/pH 7.4 buffer)	fraction unbound at […] [4, 5]	IC50 (CYP2C19)	inhibition at 20 µM (CYP2C19)	IC50 (CYP2C9)	CYP2C9 % inhibition at max conc (CYP2C9; microsomes)	IC50 (CYP1A2)	CYP1A2 % inhibition at max conc (CYP1A2; microsomes)	IC50 (CYP3A4; [6])	IC50 (CYP3A4; [7])	inhibition at 20 µM (CYP3A4; [8])	IC50 (CYP2D6)	Ki (CYP2D6)	inhibition at 20 µM (CYP3A4; [9])	other results
CC(C)NC(=N)NC(=N)Nc1ccc(Cl)c(Cl)c1 [Chlorproguanil]	1100 µg/mL (≈ 3820 µM)	1.8	998 mg	High (> 85% absorption (high))	1.5 10^−4 cm/s	0.052 ± 0.004	1.1	0.1 ± 0.007	> 20 µM	39%	> 20 µM	nmi	> 20 µM	nmi	> 20 µM	> 20 µM	41%	1.4 µM	0.87 µM		CYP3A4 (midaz) % inhibition at max conc (CYP3A4): nmi
CS(=O)(=O)c1ccc(-c2cnc(N)c(-c3ccc(C(F)(F)F)nc3)c2)cc1 [MMV048]	6.7 µg/mL (≈ 17 µM)	4.5	15 mg	High (> 85% absorption (high))	3.8 10^−4 cm/s	0.61 ± 0.014	2.5	0.17	> 20 µM		> 20 µM	nmi	> 20 µM	nmi		> 20 µM		> 20 µM			CYP2C19 % inhibition at max conc (CYP2C19): nmi; CYP3A4 (test) % inhibition at max conc (CYP3A4): nmi; inhibition at 20 µM (CYP2D6): 16%
[H]/N=C(\N/C(=N/[H])Nc1ccc(Cl)cc1)NC(C)C [Proguanil]	> 2000 µg/mL	1.0	> 1000 mg	Intermediate (50–84% absorption (intermediate))	0.71 10^−4 cm/s	0.33 ± 0.014	0.27	0.34 ± 0.01	> 20 µM	27%	> 20 µM	nmi	> 20 µM	nmi			24%	3.5 µM	2.2 µM		CYP3A4 (midaz) % inhibition at max conc (CYP3A4): nmi
COc1ccc2nc3cc(Cl)ccc3c(Nc3cc(CN4CCCC4)c(O)c(CN4CCCC4)c3)c2n1 [Pyronaridine]	> 2000 µg/mL	1.6	> 1610 mg	High (> 85% absorption (high))	1.4 10^−4 cm/s	0.29 ± 0.018	0.23	0.21	> 20 µM		> 20 µM	nmi	> 20 µM		> 20 µM	> 20 µM		1.2 µM	0.75 µM	28%	CYP2C19 % inhibition at max conc (CYP2C19): nmi; inhibition at 20 µM (CYP1A2; microsomes): 30%; CYP3A4 (test) % inhibition at max conc (CYP3A4): nmi
N#Cc1cc(NC(=O)[C@H]2c3ccccc3C(=O)N(CC(F)(F)F)[C@@H]2c2cccnc2)ccc1F [SJ733]	101 µg/mL (≈ 216 µM)	2.2	109 mg	High (> 85% absorption (high))	1.8 10^−4 cm/s	0.58 ± 0.069	3.9	0.17	> 20 µM	38%	> 20 µM		> 20 µM	nmi	> 20 µM	> 20 µM	37%	16 µM	9.6 µM	33%	inhibition at 20 µM (CYP2C9; human, microsomes, pH 7.4): 33%
COc1cc(C)c2c(Oc3cccc(C(F)(F)F)c3)c(OC)cc(NC(C)CCCN)c2n1 (centres unmarked) [Tafenoquine]	15.8 µg/mL (≈ 34.1 µM)	13	105 mg	High (> 85% absorption (high))	11 10^−4 cm/s	0.002 ± 0.0003	4.24	0.11	> 20 µM	42%	14 µM		> 20 µM		> 20 µM	3.8 µM		> 20 µM		40%	logD [3, 10]: 4.24; fraction unbound at […] [4, 11]: 0.0007; Ki (CYP2C9): 10 µM; inhibition at 20 µM (CYP1A2; microsomes): 20%; Ki (CYP3A4; CYP3A4 (test) Ki, human liver microsomes, CYP3A4 (test)): 2.3 µM; inhibition at 20 µM (CYP2D6): 35%
CC(C)(N)CNC(=O)C[C@H]1CC[C@]2(CC1)OO[C@]1(O2)C2CC3CC(C2)CC1C3 [OZ277, Arterolane]	> 2000 µg/mL	3.2	> 3240 mg	High (> 85% absorption (high))	2.7 10^−4 cm/s		2.6	0.086 ± 0.008	> 20 µM		> 20 µM		> 20 µM		> 20 µM	> 20 µM	46%	> 20 µM		26%	fraction unbound at […] ([2]; microsomes): 0.044 ± 0.005; logD [3, 10]: 2.6; fraction unbound at […] [4, 11]: 0.086; CYP1A2 % inhibition at max conc (CYP1A2; human liver microsomes, at max conc, nmi = no measurable inhibition): nmi
